Data set [1] concerns ethanol-induced gastric ulcer model in mice. Kind of data set: Anti-ulcer activity of single administration in ethanol-induced model in mice. In kind it is in vivo, C57BL/6 mice. The settings on record: single administration by gavage, 0.2 mg/kg, 1 h before absolute ethanol; relative to compound of SEQ ID NO: 1. The protocol:
1. Experimental animal: SPF grade C57BL/6 mice, from Chengdu Yaokang Shengwu Keji Youxian Gongsi, animal license number: SCXK (Chuan) 2020-034.
After adaptive feeding, all the animals were fasted for 24 h with free access to water after administration one day before the experiment. Before modeling, the experimental mice were randomly divided into groups: blank group (5 mice), model group (10 mice), and treatment groups (10 mice per group). Except for the blank group and the model group, which were given sterile water by gavage, the treatment groups were administered with different test compounds by gavage at a dose of 0.2 mg/kg, respectively. One hour after administration, the mice received 0.9 ml/kg absolute ethanol by oral gavage for modeling. After 1 h, the animals were sacrificed by cervical dislocation, the gastric cardia was ligated, the pylorus was occluded, and the whole stomach was removed. 1 mL of 1% formaldehyde solution was injected into the gastric lumen, the cardia was ligated, and the stomach was taken out and immediately immersed in 1% formaldehyde solution. After 30 min, the stomach tissue was taken out and cut open along the greater curvature. The content of the stomach was rinsed off with normal saline, the injury of gastric mucosa in mice were observed and measured after being laid flat, and the ulcer index and ulcer inhibition rate were calculated.
Calculation method for ulcer index: If the length of cord-like injury was greater than 1 mm, the length thereof was measured, with 1 point per millimeter; if the width thereof was greater than 1 mm, the score thereof was doubled according to the number of millimeters of the width; and if the length was less than 1 mm, a score of 0.5 was given, and the scores were added to obtain the ulcer index of the animal. • Ulcer inhibition rate=(ulcer index of model group-ulcer index of treatment group)/ulcer index of model group*100%; and • Relative ulcer inhibition rate=(ulcer inhibition rate of test compound)/(ulcer inhibition rate of Compound 1).

A short description of data set [2]: Gastric and intestinal stability test of polypeptide samples. It counts as in vitro ADME. Particulars: 37° C., 1 hour, HPLC peak area; for W Retained %: artificial gastric juice (W); for X Retained %: artificial intestinal juice (X); for O Retained %: hydrogen peroxide solution (O); for I Retained %: povidone-iodine solution (I). The protocol:
Method: 1 mg of each of the samples to be tested (Compounds 1, 26, 27 and 28 and EGF) were taken and dissolved in 1 ml of water. 100 ul of sample solution was taken, 900 ul of water was added, and they were uniformly mixed, as a control solution. 100 ul of each sample solution was taken, and 900 ul of artificial gastric juice (W), artificial intestinal juice (X), povidone-iodine solution (I), and hydrogen peroxide solution (O) were respectively added. The solution was placed in a constant temperature water bath at 37° C. for 1 hour, and left to stand for cooling and filtering, as a test solution. The peak areas of the sample before and after treatment were respectively detected by high performance liquid chromatography, and the experimental results were compared based on the peak areas of the samples. The original solution without any treatment after being diluted with water was used as a control, and the changes in the peak areas (contents) of test solutions at corresponding positions were compared and counted.

For data set [3], the system named is subintestinal vascular branches of zebrafish. The data set is described as follows: Repair of simvastatin-induced vascular injury in zebrafish. In kind it is in vivo. Particulars: 500 ng/fish intravenous injection, 28° C., 2 days. The text has this: Method: The blood vessels of transgenic vascular green fluorescent zebrafish (Fli-1) were labeled by green fluorescent protein, which was clearly visible under a fluorescence microscope (FIG. 9, the dotted frame in FIG. 9 (yellow in the original picture) was the intestinal blood vessel at the analysis site, and the arrow (white in the original picture) pointed to subintestinal vascular branches), and it became a model organism for observing vascular change. Zebrafish Fli-1 was naturally mated in pairs for breeding. Zebrafish Fli-1 was randomly selected and placed in a 6-well plate one day after fertilization, with 30 fish per well (experimental group). The zebrafish in the normal control group were treated with standard dilution water, and each of the other experimental groups was induced with aqueous simvastatin for 3 hours to establish a zebrafish microvascular loss model. After 3 hours, the aqueous solutions in all the groups were replaced with standard dilution water, and simvastatin induction was terminated. […] Ten zebrafish in each group were randomly selected and photographed under the fluorescence microscope. NIS-Elements D 3.20 advanced image processing software was used for analysis and data collection, and the number of subintestinal vascular branches was analyzed.

The subject of data set [4] is aspirin-induced gastric ulcer in rats. The data set is described as follows: Aspirin-induced gastric ulcer in rats. It counts as in vivo, SD rats. The protocol: Method: After adaptive feeding, SD rats were divided into three groups (10 rats in each group) by Excel-based complete randomization, namely, a control group, a model group, and a the compound of SEQ ID NO: 1 (0.3 mg/kg) group. After the animals were grouped, they were given corresponding treatments (the control group and the model group were given the same volume of purified water, and the SEQ ID NO: 1 group was given corresponding drug treatment) once a day for 8 consecutive days. On the 7th day after administration, all the animals were fasted for 24 h with free access to water. On the 8th day, except for the control group, the rats in the SEQ ID NO: 1 group and the model group were orally given 250 mg/kg aspirin solution for modeling 30 min after compound administration (or given water). 4 h after modeling, the animals were sacrificed, the cardia was ligated, the pylorus was occluded, and the whole stomach was removed. 8 mL of 1% formaldehyde solution was injected into the gastric lumen, the pylorus was ligated, and the stomach was taken out and immediately immersed in 1% formaldehyde solution for fixation. After 30 min, the stomach was cut open along the greater curvature, the content of the stomach was cleaned off with normal saline, and after the stomach was laid flat, the stomach was observed, and panoramic photos were taken to measure the ulcer area.

The test system of data set [5] is ethanol-induced gastric ulcer in mice. The data set is described as follows: Ethanol-induced gastric ulcer in mice, administration once a day for 8 days. It counts as in vivo, C57BL/6 mice. Particulars: absolute ethanol, gavage once a day for 8 days, SEQ ID NO: 1 1 mg/kg, teprenone 160 mg/kg, n = 10, x ± s. As for the experimental part: 1. Experimental animal: SPF grade C57BL/6 mice, from Chengdu Yaokang Biotechnology Ltd, animal license number: SCXK (Chuan) 2020-034.
2. Method: After adaptive feeding, the mice were randomly divided into four groups with 10 mice in each group, namely, control group (normal group), model group (modeling with absolute ethanol), positive drug group (teprenone 160 mg/kg) and SEQ ID NO: 1 group (1 mg/kg). After the animals were grouped, the control group and model group were treated with pure water, and the other dosed groups were treated with the corresponding drugs once a day for 8 consecutive days. On the 7th day, after treatment, all the animals were fasted for 24 h with free access to water. […] The stomach was cut open along the greater curvature, the content of the stomach was cleaned off with normal saline, and the ulcer index was calculated after being laid flat. Calculation method for ulcer index: If the length of cord-like injury was greater than 1 mm, the length thereof was measured, with 1 point per millimeter; if the width thereof was greater than 1 mm, the score thereof was doubled according to the number of millimeters of the width; and if the length was less than 1 mm, a score of 0.5 was given, and the scores were added up to obtain the ulcer index of the animal.

The source of these data is patent publication US12351651B2, “Polypeptide for repairing mucosal damage or skin wound and use thereof” (Sichuan Gooddoctor Panxi Pharmaceutical Co., Ltd., priority 2020, dated 2025).

Values joined by “and” are separate entries in the source; they are usually repeats but may differ in a detail not shown here. Equal values may be shown once. Marks after values point to notes of the source that are not given here. No end group written: not given here.

Turning to AEPVPL [SEQ ID NO: 30], the “Anti-ulcer activity (mean relative ulcer inhibition rate)” value in data set [1] is reported as “+++ (relative ulcer inhibition rate 0.9-1.20, denoted as “+++”)”.

Regarding AEPVPLVKQD [SEQ ID NO: 27], in data set [2], the “W Retained %” value is 100% and 97%; the “X Retained %” value turned out to be 0%; the “O Retained %” value was 100% and 101%; the “I Retained %” value was 100%. Moreover, in data set [1], the “Anti-ulcer activity (mean relative ulcer inhibition rate)” value is “+++ (relative ulcer inhibition rate 0.9-1.20, denoted as “+++”)”.

As for Ala-Glu-Pro-Val (AEPV) [SEQ ID NO: 45], the “Anti-ulcer activity (mean relative ulcer inhibition rate)” value in data set [1] is on record as “− (relative ulcer inhibition rate <0, denoted as “−”)”.

With “Ala-Glu-Pro-Val-Pro (AEPVP) [SEQ ID NO: 44]”, the “Anti-ulcer activity (mean relative ulcer inhibition rate)” value in data set [1] is on record as “+ (relative ulcer inhibition rate 0.3-0.6, denoted as “+”)”.

On to EPVPLVKQD [SEQ ID NO: 38], for which the “Anti-ulcer activity (mean relative ulcer inhibition rate)” value in data set [1] is reported as “+++ (relative ulcer inhibition rate 0.9-1.20, denoted as “+++”)”.

As for “Glu-Pro-Val-Pro-Leu (EPVPL) [SEQ ID NO: 31]”, the “Anti-ulcer activity (mean relative ulcer inhibition rate)” value in data set [1] is “+++ (relative ulcer inhibition rate 0.9-1.20, denoted as “+++”)”.

Turning to PAADPVPLVKQD [SEQ ID NO: 11], the “Anti-ulcer activity (mean relative ulcer inhibition rate)” value in data set [1] was “++ (relative ulcer inhibition rate 0.6-0.9, denoted as “++”)”.

As to PAAEGVGLVKQD [SEQ ID NO: 8], the “Anti-ulcer activity (mean relative ulcer inhibition rate)” value in data set [1] is given as “+ (relative ulcer inhibition rate 0.3-0.6, denoted as “+”)”.

PAAEPV [SEQ ID NO: 34]: in data set [1], the “Anti-ulcer activity (mean relative ulcer inhibition rate)” value is “/ (0< relative ulcer inhibition rate <0.3, denoted as “/” (very low activity))”.

Turning to PAAEPVPFVKQD [SEQ ID NO: 12], the “Anti-ulcer activity (mean relative ulcer inhibition rate)” value in data set [1] is given as “/ (0< relative ulcer inhibition rate <0.3, denoted as “/” (very low activity))”.

PAAEPVPL [SEQ ID NO: 26]: in data set [2], the “W Retained %” value is 100%; the “O Retained %” value was 100% and 102%; the “I Retained %” value was 100% and 101%. Besides, the “Anti-ulcer activity (mean relative ulcer inhibition rate)” value in data set [1] was “+++ (relative ulcer inhibition rate 0.9-1.20, denoted as “+++”)”. The “subintestinal microvascular loss caused by simvastatin / number of subintestinal vascular branches” value in data set [3] is “significantly reverse”.

Take PAAEPVPLIKQD [SEQ ID NO: 64]: the “Anti-ulcer activity (mean relative ulcer inhibition rate)” value in data set [1] is recorded as “+ (relative ulcer inhibition rate 0.3-0.6, denoted as “+”)”.

Regarding PAAEPVPLVK [SEQ ID NO: 3], the “Anti-ulcer activity (mean relative ulcer inhibition rate)” value in data set [1] is “+++ (relative ulcer inhibition rate 0.9-1.20, denoted as “+++”)”.

In the case of PAAEPVPLVKED [SEQ ID NO: 57], the “Anti-ulcer activity (mean relative ulcer inhibition rate)” value in data set [1] is “++ (relative ulcer inhibition rate 0.6-0.9, denoted as “++”)”.

Consider PAAEPVPLVKND [SEQ ID NO: 58], for which the “Anti-ulcer activity (mean relative ulcer inhibition rate)” value in data set [1] is “/ (0< relative ulcer inhibition rate <0.3, denoted as “/” (very low activity))”.

“PAAEPVPLVKQD [SEQ ID NO: 1, Pro-Ala-Ala-Glu-Pro-Val-Pro-Leu-Val-Lys-Gln-Asp]”: the weight change entry in data set [4] (0.3 mg/kg oral gavage once a day for 8 consecutive days) was “no obvious effects”.

Turning to PAAEPVPLVKQE [SEQ ID NO: 60], the “Anti-ulcer activity (mean relative ulcer inhibition rate)” value in data set [1] was “+ (relative ulcer inhibition rate 0.3-0.6, denoted as “+”)”.

Turning to PAAEPVPLVKQN [SEQ ID NO: 50], the “Anti-ulcer activity (mean relative ulcer inhibition rate)” value in data set [1] was “/ (0< relative ulcer inhibition rate <0.3, denoted as “/” (very low activity))”.

Consider PAAQPVPLVKQD [SEQ ID NO: 10], for which, in data set [1], the “Anti-ulcer activity (mean relative ulcer inhibition rate)” value is “++++ (Relative ulcer inhibition rate >1.20, denoted as “++++”)”.

In the case of PAAVPVPLVKQD [SEQ ID NO: 67], the “Anti-ulcer activity (mean relative ulcer inhibition rate)” value in data set [1] is given as “+ (relative ulcer inhibition rate 0.3-0.6, denoted as “+”)”.

Regarding PAGEPVPLVKQD [SEQ ID NO: 48], the “Anti-ulcer activity (mean relative ulcer inhibition rate)” value in data set [1] is on record as “++ (relative ulcer inhibition rate 0.6-0.9, denoted as “++”)”.

Turning to PIAEPVPLVKQD [SEQ ID NO: 56], the “Anti-ulcer activity (mean relative ulcer inhibition rate)” value in data set [1] was “− (relative ulcer inhibition rate <0, denoted as “−”)”.

In the case of PVPLVKQD [SEQ ID NO: 28], in data set [2], the “W Retained %” value is 100% and 96%; the “X Retained %” value was determined as 0%; the “O Retained %” value is 100% and 99%; the “I Retained %” value was 100% and 99%. Moreover, the “Anti-ulcer activity (mean relative ulcer inhibition rate)” value in data set [1] was “+++ (relative ulcer inhibition rate 0.9-1.20, denoted as “+++”)”.

“Pro-Ala-Ala-Glu-Pro (PAAEP) [SEQ ID NO: 35]”: in data set [1], the “Anti-ulcer activity (mean relative ulcer inhibition rate)” value is “+ (relative ulcer inhibition rate 0.3-0.6, denoted as “+”)”.

Turning to Pro-Val-Pro-Leu (PVPL) [SEQ ID NO: 32], in data set [1], the “Anti-ulcer activity (mean relative ulcer inhibition rate)” value was “+++ (relative ulcer inhibition rate 0.9-1.20, denoted as “+++”)”.

As to SEQ ID NO. 1 (PAAEPVPLVKQD), in data set [4] (rats, 0.3 mg/kg gavage once a day for 8 days, aspirin 250 mg/kg), the Ulcer area is 20.55 ± 10.45** mm^2.

With Val-Pro-Leu-Val (VPLV) [SEQ ID NO: 73], the “Anti-ulcer activity (mean relative ulcer inhibition rate)” value in data set [1] is listed as “++ (relative ulcer inhibition rate 0.6-0.9, denoted as “++”)”.

With teprenone, in data set [5], the Ulcer index turned out to be 13.42 ± 7.61.
